The source of these data is US9078907B2, “Immunoregulator compounds” (Universita Degli Studi Di Roma “Tor Vergata”, priority 2001, dated 2015).

The subject of experiment [1] is Mycobacterium tuberculosis. Description: Colony forming units of H37Rv M. tuberculosis in differentiated THP-1 cells. It is filed as cell-based. The note with it: THP-1 macrophage cell line, MOI 1:10 or 1:1, 5 μM, up to 5 or 7 days. As to the method: Human monocytic THP-1 leukemia line cells were used in this example as a model for macrophage response. In order to obtain macrophage phenotype, 5×10^5/ml THP-1 cells were induced to differentiate by 48 hours incubation in the presence of 20 ng/ml Phorbol Myristate Acetate (PMA). Differentiated THP-1 cells (dTHP-1) were then centrifuged three times and suspended in complete medium [RPMI 1640 (Gibco BRL) supplemented with 10% fetal bovine serum, 5 mM L-glutamine) (Invitrogen), 1 mM sodium pyruvate (Gibco BRL) and non-essential amino acids (Euroclone), 5 μg/ml gentamicin (Invitrogen)]. dTHP-1 were then infected for 3 hours with H37Rv M. tuberculosis at the multiplicity of infection of 1:10 (FIG. 8A) or 1:1 (FIG. 8B) bacterium/cell. After infection cells were washed three times with RPMI 1640 and incubated in complete medium for further 1, 2 and 5 days (FIG. 8A) or 1 and 7 days (FIG. 8B) in the presence or absence of sphingosine 1-phosphate used at the concentration of 5 μM. […]

The test system of experiment [2] is MTB-FITC infected macrophages. Description: Phagolysosome maturation by flow cytometry of FITC-labelled MTB infected macrophages. It is filed as cell-based, human. The note with it: MTB-FITC MOI 1 for 3 hours, 5 μM S1P for 30 minutes; S1P non-treated 63.4%. As to the method:
In some experiments MTB aliquots, after thawing at room temperature, centrifuged at 10000 rpm for 10 minutes, suspended in PBS and sonicated for 1-2 minutes, were labelled with fluorescein isothiocyanate (FITC) (Sigma). FITC, pre-suspended at 1 μg/ml concentration, was added to the bacterial suspension, which was incubated at 37° C. in the presence of 5% CO2 for about 90 minutes. At the end of the incubation the bacterial suspension was washed three times with centrifugation at 14000 rpm for 15 minutes and suspended in PBS at required concentration.
By virtue of extreme sensitivity of fluorescein isothiocyanate (FITC) to acid pHs this molecule was used to monitor the phagosome acidity and have therefore information about maturation stage of phagolysosome. To this aim, bacteria were labelled with fluorescein isothiocyanate (FITC) as above described. Infection was carried out using FITC labelled bacteria. Then, cells were washed after 3 hours and stimulated for 30 minutes with 5 μM sphingosine 1-phosphate and following 1.5% paraformaldehyde (PFA) fixated and finally monitored by flow cytofluorometry.
In order to evaluate the effect of S1P on a specific antimicrobial activity as the maturation of phagolysosome, the infection with FITC-labelled MTB was carried out and the fluorescence values of FITC-MTB were used as indicators of the phagolysosome maturation. […]

For a further experiment, the system named is Mycobacterium smegmatis. The experiment is described as follows: Colony forming units of M. smegmatis in differentiated THP-1 cells. It is filed as cell-based. The note with it: THP-1 macrophage cell line, MOI 50:1, 5 μM, 1, 12 and 24 hours. The method, then:
Human monocytic THP-1 leukemia line cells were used in this example as a model for macrophage response. In order to obtain macrophage phenotype, 5×10^5/ml THP-1 cells were induced to differentiate by 48 hours incubation in the presence of 20 ng/ml Phorbol Myristate Acetate (PMA). Differentiated THP-1 cells (dTHP-1) were then centrifuged three times and suspended in complete medium [RPMI 1640 (Gibco BRL) supplemented with 10% fetal bovine serum (Gibco BRL), 5 mM L-glutamine (Invitrogen), 1 mM sodium pyruvate (Gibco BRL) and non-essential amino acids (Euroclone)]. dTHP-1 were then infected for 3 hours with M. smegmatis at the multiplicity of infection of bacterium/cell 50:1. Following infection cells were washed three times with RPMI 1640 and incubated in complete medium at 37° C. for further 1, 12 and 24 hours in the presence or absence of sphingosine-1 phosphate used at the concentration of 5 μM.
In order to assess the role of macrophage PLD activity in sphingosine 1-phosphate induced mycobacterial growth control, following the infection the cells were cultured in the presence of various concentrations of ethanol (0.3%, 0.03%, 0.003%) or 10 nM calphostin C. […] Inhibiting activity of calphostin C is exploited by targeting PLD catalytic domain (Sciorra V. A., Hammond S. M., Morris A. J. Potent direct inhibition of mammalian phospholipase D isoenzymes by calphostin c. Biochemistry 2001; 40: 2640-46). Just after the infection and at the indicated time points, cells were 1) lysed using cold PBS containing 0.1% saponin (Sigma, MA, USA), ii) serially diluted in PBS containing 0.01% Tween-80 (Merck, Darmstadt, Germany) and iii) plated in triplicate in Middlebrook 7H10 medium (Becton Dickinson, MD, USA) supplemented with 10% OADC formulation (0.5 mg/ml oleic acid, 50 mg/ml albumin, 20 mg/ml dextrose, 0.04 mg/ml catalase and 8.5 mg/ml sodium chloride). M. smegmatis colonies were enumerated after incubation for 3 days at 37° C.

For another experiment, the system named is macrophages. The experiment is described as follows: ROI generation by dichlorofluorescein (DCF) flow cytometry. It is filed as cell-based, human. The method, then:
Because dichloro fluorescein (DCF) is a fluorochrome obtained from reaction of non fluorescent 2, 7-dichloro fluorescein diacetate (DCFH) with various oxidants, analysis thereof is used to detect cellular oxidative stress and amount of oxygen reactive intermediates (ROI) produced by phagocytic cells. In the used model, this analysis is employed in order to monitor the D-erythro-sphingosine 1-phosphate (S1P) modulated ROI production from macrophages. Macrophages were incubated for 90 minutes with sphingosine 1-phosphate at 0.5 μM, 5 μM, 10 μM and 50 μM concentrations. After the incubation 100 μl of 0.4 μM DCFH (Calbiochem) were added and incubated for at least 30 minutes. Finally, cells were washed with PBS and analysed using FACScan flow cytometer from Becton Dickinson.

As to `CCCCCCCCCCCCC/C=C/[C@@H](O)[C@@H](N)COP(=O)(O)O` [S1P, D-erythro-sphingosine 1-phosphate], in experiment [1], the “intracellular replication of Mycobacterium tuberculosis (CFU)” value is “inhibits”. Besides, the “% of fluorescent macrophages (FITC-MTB fluorescence)” value in experiment [2] was 38.9%. The “intracellular replication of Mycobacterium smegmatis (CFU)” value with Mycobacterium smegmatis is recorded as “inhibits”. Moreover, in the experiment on macrophages (5 μM S1P, DCF positive response after 30 and 90 minutes), the “ROI production by macrophages over the time” value is listed as “increases progressively over the time”. Also, in the experiment with macrophages (scalar S1P doses, % DCF positive cells), the “S1P dose giving maximum DCF positive response” value is 5-10 μm.
